Where a SMILES comes first, the peptide text is derived from it. [ ]: non-standard residue; d: D form. The star is where a group is joined. Sta = CC(C)C[C@H](N)[C@@H](O)CC(=O)O; Isovaleryl = CC(C)CC(=O)*
What was measured:
purified chymotrypsin = assay: Purified Protease Method: purified chymotrypsin; type: biochemical; details: pH 7.6, 25° C., read-out: IC50 Values, Purified Proteases, Chymotrypsin
Description: Standard in vitro assays for enzyme activity and inhibition of enzyme activity are well known. The reagents used to conduct these tests are generally commercially available. In general, a simple system comprises an enzyme-specific substrate which, when hydrolyzed by the enzyme, produces a colored product. The activity of the enzyme is measured spectrophotometrically as the degree of development of the colored product (i.e. the rate of color change) over a predetermined time period.
For the Purified Protease assay and the Fecal Protease assays described below, the IC50 for each inhibitor tested is calculated according to the following equation: IC50=[I]/[(v/vi)−1] where: [I] is the inhibitor concentration tested, v is the rate of substrate cleavage in the absence of inhibitor and vi is the rate of substrate cleavage in the presence of inhibitor.
The following Purified Protease and Fecal Protease Methods are utilized to determine the inhibitory activity of putative protease inhibitors against a) purified proteases known to exist in feces; and b) the protease activity of feces itself; respectively. […] In the Methods, v and vi are measured as the change in absorbance (optical density, OD) at a given wavelength/time (e.g., minutes).
To test the efficacy of protease inhibitors against purified chymotrypsin, 0.05 mL of a putative inhibitor and 0.125 mL of 16 nM chymotrypsin (e.g., Sigma, St. Louis, Mo., catalogue no. C8946) in chymotrypsin buffer (50 mM TRIS, 10 mM CaCl2, pH 7.6) are added to a microcuvette. […] To this mixture, 0.025 mL of substrate (0.6 mM N-Succ-Ala-Ala-Pro-Phe-p-nitroanilide, e.g., Sigma cat. no. S7388) in chymotrypsin buffer is added to the cuvette, mixed, and the absorbance at 405 nm measured over 10 minutes at 25° C. The rate of substrate cleavage in the presence of inhibitor (vi) is the slope of a plot relating the absorbance at 405 nm versus time. […] The rate of substrate cleavage in the absence of inhibitor (v) is the slope of a plot relating the absorbance at 405 nm versus time. […]

[1] = test system: IL-1α production by cultured keratinocytes in the presence of feces; assay: In Vitro Skin Test for Inhibition of IL-1α Production; type: cell-based, human
Excerpt: In an in vitro method to determine the efficacy of protease inhibitors in preventing the proinflammatory response of the skin to feces and fecal enzymes, human keratinocytes are obtained from epidermal tissue and cultured in serum free medium in plastic culture vessels containing a nylon mesh surface for a period of time until they are confluent. The mesh surface is then raised to the liquid air interface in order to promote differentiation and formation of multilayered organized layers analogous to those found in vivo, including a well defined stratum corneum barrier layer. Any cell culture system that promotes the growth and differentiation of keratinocytes, as described, may be employed. A commercially available cell culture system suitable for use in the invention is Epiderm (MatTek Corporation, Ashland, Mass.). Infant feces are collected in a manner to keep them free of urine contamination and diluted with phosphate-buffered saline (PBS) (pH 7.2-7.4.) The mixture is then mixed thoroughly to obtain a homogeneous suspension by homogenization or sonication. To assay for IL-1α production due to fecal enzyme activity, an aliquot of the homogenate is diluted with PBS and added to the surface of a control culture in a culture vessel. To assay for inhibition of IL-1α production due to protease activity, a predetermined quantity of a putative protease inhibitor is added to an otherwise identical diluted aliquot of the homogenate prior to adding it to the surface of a test culture. The cultures are allowed to incubate in a controlled atmosphere. At selected times, the control cultures and inhibitor-treated test cultures, and the underlying culture media are harvested. The culture media are assayed for the presence of IL-1α by known methods. For example, a suitable assay for IL-1α is an enzyme-linked immunoabsorbent method commercially available as Quantikine from R&D Systems, Minneapolis, Minn. The percent reduction in IL-1α production due to the presence of the protease inhibitor is calculated as follows: [formula] […]

Molecule | IC50 (purified chymotrypsin) | further results
CC(C)CC(=O)N[C@H](C(=O)N[C@H](C(=O)N[C@@H](CC(C)C)[C@@H](O)CC(=O)N[C@@H](C)C(=O)N[C@@H](CC(C)C)[C@@H](O)CC(=O)O)C(C)C)C(C)C [Pepstatin A] (Isovaleryl-VV[Sta]A[Sta]-OH) | 4900 nM | 
Aprotinin | 1000 nM | 
CC(C)C[C@H](NC(=O)[C@@H](NC(=O)N[C@@H](Cc1ccccc1)C(=O)O)[C@@H]1CCN=C(N)N1)C(=O)N[C@H](C=O)Cc1ccccc1 [Chymostatin] | < 120 nM | 
N=C(N)c1ccc(OCCCCCCOc2ccc(C(=N)N)cc2)cc1 [Hexamidine diisethionate, hexamidine diisethionate] |  | reduction of IL-1α production from skin cultures treated with feces ([1]; inhibitor concentration 100 μM): 5%; reduction of IL-1α production from skin cultures treated with feces ([1]; inhibitor concentration 1000 μM): 51-88%
Soybean trypsin inhibitor: plant-derived trypsin inhibitor; serine protease inhibitor (protein, UniProt P01070 25-205, looked up) Trypsin inhibitor A: DFVLDNEGNPLENGGTYYILSDITAFGGIRAAPTGNERCPLTVVQSRNELDKGIGTIISSPYRIRFIAEGHPLSLKFDSFAVIMLCVGIPTEWSVVEDLPEGPAVKIGENKDAMDGWFRLERVSDDEFNNYKLVFCPQQAEDDKCGDIGISIDHDDGTRRLVVSKNKPLVVQFQKLDKESL |  | reduction of IL-1α production from skin cultures treated with feces ([1]; inhibitor concentration 10 μM): 56-75%

Reference: patent US8309788B2, “Protease inhibitors in absorbent articles” (The Procter and Gamble Company, priority 1999, dated 2012)
